{"source": "paper PMC8881512", "about": "(Nature Communications, 2022)", "key": {"[1]": {"biological_target": "T1, LATS2 (Homo sapiens, UniProt Q9NRM7)", "T1 construct": "purchased Signalchem", "T1 sequence (Q9NRM7 1-1088)": "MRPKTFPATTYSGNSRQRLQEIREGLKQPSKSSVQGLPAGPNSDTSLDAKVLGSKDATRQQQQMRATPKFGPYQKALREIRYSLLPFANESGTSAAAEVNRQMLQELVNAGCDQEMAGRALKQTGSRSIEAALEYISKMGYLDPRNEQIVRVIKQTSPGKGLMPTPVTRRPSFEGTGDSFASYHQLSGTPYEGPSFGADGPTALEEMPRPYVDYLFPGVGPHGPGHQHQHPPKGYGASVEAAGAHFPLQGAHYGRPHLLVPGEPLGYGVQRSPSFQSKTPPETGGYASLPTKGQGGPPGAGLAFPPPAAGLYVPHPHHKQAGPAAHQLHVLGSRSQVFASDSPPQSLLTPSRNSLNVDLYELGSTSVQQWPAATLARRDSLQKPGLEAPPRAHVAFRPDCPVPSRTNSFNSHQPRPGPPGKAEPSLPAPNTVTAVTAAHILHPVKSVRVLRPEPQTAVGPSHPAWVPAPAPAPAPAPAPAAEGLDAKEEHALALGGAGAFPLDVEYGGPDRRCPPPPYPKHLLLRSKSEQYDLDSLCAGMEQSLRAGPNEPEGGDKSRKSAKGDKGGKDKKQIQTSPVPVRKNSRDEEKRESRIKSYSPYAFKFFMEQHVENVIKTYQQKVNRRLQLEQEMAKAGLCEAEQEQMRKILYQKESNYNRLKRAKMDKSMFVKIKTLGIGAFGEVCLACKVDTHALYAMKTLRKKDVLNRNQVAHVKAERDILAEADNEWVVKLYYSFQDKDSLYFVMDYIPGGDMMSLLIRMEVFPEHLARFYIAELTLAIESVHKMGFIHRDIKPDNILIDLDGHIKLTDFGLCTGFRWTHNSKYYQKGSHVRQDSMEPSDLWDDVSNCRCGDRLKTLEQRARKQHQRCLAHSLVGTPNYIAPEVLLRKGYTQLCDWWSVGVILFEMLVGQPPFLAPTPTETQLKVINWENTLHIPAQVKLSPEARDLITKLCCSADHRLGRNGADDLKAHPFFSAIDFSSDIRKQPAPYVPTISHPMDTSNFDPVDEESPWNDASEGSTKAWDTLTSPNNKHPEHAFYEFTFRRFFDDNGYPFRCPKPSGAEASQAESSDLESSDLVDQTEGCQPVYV", "assay": "In vitro LATS2 kinase inhibition assay (HTRF)", "format": "biochemical", "parameters": "key to LATS2 kinase activity: % inhibition = (HIGH − ratio)×100/(HIGH − LOW)", "settings": "for LATS2 kinase activity: Fig.5c; for IC50: in vitro, 6000 μM ATP, n = 2", "experimental": "(§1) The kinase activity of LATS1 and LATS2 were performed based on an adapted and optimised HTRF Kinase Binding assay (Cisbio). Briefly, the concentration-response curves with compound concentration range of 10,000 to 0.17 nM with 3-fold serial dilution and 1X Kinase enzymatic buffer (Cisbio), 1.2 nM LATS1 or LATS2 kinases (Signalchem), 0.5 μM biotinylation labelled YAP peptide (Vivace) were dispensed into 384-well microplates by automated digital dispenser Echo/POD with the final DMSO concentration in all wells at 0.5%. To start the enzymatic reaction, 3000 μM ATP (for LATS1) or 6000 μM ATP (for LATS2) were added using multidrop in a 10-μl volume and incubated for 90 min at 30 °C. Subsequently, 10 μl of HTRF KinEASE detection buffer (Cisbio) containing 31.25 nM acceptor conjugate (streptavidin-XL665) and 1:100 donor conjugate (TK antibody labelled with Eu^3+-Cryptate) mixture were added and incubated at RT for 60 min, and the fluorescence emission at two different wavelengths was measured (615 nm and 665 nm) on Envision. […] The inhibition was calculated by the formula, inhibition % = (HIGH − ratio) × 100/ (High − LOW). HIGH control stands for 0.5% DMSO with kinase and LOW control stands for 0.5% DMSO without kinase. The data was analysed by Xlfit software. The IC50 values were determined by fitting to a standard four-parameter logistic using GraphPad Prism."}, "[2]": {"biological_target": "T2, LATS1 (Homo sapiens, UniProt O95835)", "T2 construct": "purchased Signalchem", "T2 sequence (O95835 1-1130)": "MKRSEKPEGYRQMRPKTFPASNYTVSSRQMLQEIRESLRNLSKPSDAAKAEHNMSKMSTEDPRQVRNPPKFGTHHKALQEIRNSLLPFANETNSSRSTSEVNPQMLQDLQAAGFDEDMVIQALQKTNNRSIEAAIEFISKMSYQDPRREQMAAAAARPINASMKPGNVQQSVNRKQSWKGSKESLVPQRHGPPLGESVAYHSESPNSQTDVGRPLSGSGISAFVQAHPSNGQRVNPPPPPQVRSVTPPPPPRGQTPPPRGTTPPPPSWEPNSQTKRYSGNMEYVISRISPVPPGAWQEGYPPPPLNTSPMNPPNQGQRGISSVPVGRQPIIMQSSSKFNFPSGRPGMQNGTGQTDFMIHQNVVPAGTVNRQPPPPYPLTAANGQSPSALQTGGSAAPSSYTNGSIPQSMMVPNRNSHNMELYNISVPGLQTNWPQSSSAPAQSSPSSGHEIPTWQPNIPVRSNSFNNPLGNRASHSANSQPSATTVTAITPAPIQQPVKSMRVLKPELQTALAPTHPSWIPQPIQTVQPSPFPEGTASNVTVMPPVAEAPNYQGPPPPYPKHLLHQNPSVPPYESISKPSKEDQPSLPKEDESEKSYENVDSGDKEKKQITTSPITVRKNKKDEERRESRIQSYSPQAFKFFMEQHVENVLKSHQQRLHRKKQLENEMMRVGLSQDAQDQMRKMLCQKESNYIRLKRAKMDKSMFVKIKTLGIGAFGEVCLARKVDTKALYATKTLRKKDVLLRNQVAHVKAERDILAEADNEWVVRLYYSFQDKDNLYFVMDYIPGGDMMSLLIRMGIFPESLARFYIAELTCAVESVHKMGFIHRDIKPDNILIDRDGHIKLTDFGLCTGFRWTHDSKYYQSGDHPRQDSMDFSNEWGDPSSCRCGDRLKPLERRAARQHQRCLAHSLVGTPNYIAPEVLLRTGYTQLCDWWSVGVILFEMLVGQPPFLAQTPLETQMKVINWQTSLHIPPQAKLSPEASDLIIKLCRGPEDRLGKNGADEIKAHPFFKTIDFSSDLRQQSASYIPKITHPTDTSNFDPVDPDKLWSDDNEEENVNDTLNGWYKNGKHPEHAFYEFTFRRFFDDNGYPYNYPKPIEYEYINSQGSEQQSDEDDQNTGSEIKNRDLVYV", "assay": "In vitro LATS1 kinase inhibition assay (HTRF)", "format": "biochemical", "settings": "for LATS1 kinase activity: Fig.5b; for IC50: 3000 μM ATP, n = 2", "experimental": "as §1"}}, "note": "“And” between values parts separate entries of the source, which are not always exact repeats. Equal entries are not always repeated."}
{"smiles": "NCC1CCN(c2nc(-c3ccncc3)nc3c(C#CCO)cccc23)CC1", "note": "[VT02956]", "values": [{"measurement": "LATS2 kinase activity", "setting": "[1]; Conc. 0.00016935 (µM)", "result": "60.6319 and 66.1157"}, {"measurement": "LATS2 kinase activity", "setting": "[1]; Conc. 0.00050805 (µM)", "result": "35.6649 and 36.636"}, {"measurement": "LATS2 kinase activity", "setting": "[1]; Conc. 0.00152416 (µM)", "result": "7.393 and 7.887"}, {"measurement": "IC50", "setting": "[1]", "result": 0.52, "unit": "nM"}, {"measurement": "LATS1 kinase activity", "setting": "[2]; Conc. 0.00016935 (µM)", "result": "83.5285 and 93.8174"}, {"measurement": "LATS1 kinase activity", "setting": "[2]; Conc. 0.00050805 (µM)", "result": "56.9778 and 63.1654"}, {"measurement": "LATS1 kinase activity", "setting": "[2]; Conc. 0.00152416 (µM)", "result": "31.2859 and 31.2259"}, {"measurement": "LATS1 kinase activity", "setting": "[2]; Conc. 0.00457247 (µM)", "result": "3.14 and 1.742"}, {"measurement": "IC50", "setting": "[2]; in vitro", "result": 0.76, "unit": "nM"}]}
{"smiles": "CCN(CC)c1nc(-c2ccncc2)nc2c(-c3ccc(Cl)cc3)cccc12", "note": "[VT02484]", "values": [{"measurement": "LATS2 kinase activity", "setting": "[1]; Conc. 0.00016935 (µM)", "result": "96.8406 and 89.7881"}, {"measurement": "LATS2 kinase activity", "setting": "[1]; Conc. 0.00050805 (µM)", "result": "86.8123 and 94.4369"}, {"measurement": "LATS2 kinase activity", "setting": "[1]; Conc. 0.00152416 (µM)", "result": "95.4849 and 93.7686"}, {"measurement": "LATS2 kinase activity", "setting": "[1]; Conc. 0.00457247 (µM)", "result": "92.5091 and 95.5041"}, {"measurement": "LATS2 kinase activity", "setting": "[1]; Conc. 0.0137174 (µM)", "result": "94.4128 and 88.6006"}, {"measurement": "LATS2 kinase activity", "setting": "[1]; Conc. 0.0411523 (µM)", "result": "86.8411 and 90.365"}, {"measurement": "LATS2 kinase activity", "setting": "[1]; Conc. 0.123457 (µM)", "result": "93.2446 and 92.7206"}, {"measurement": "LATS2 kinase activity", "setting": "[1]; Conc. 0.37037 (µM)", "result": "94.4513 and 95.1243"}, {"measurement": "LATS2 kinase activity", "setting": "[1]; Conc. 1.11111 (µM)", "result": "88.3362 and 87.5718"}, {"measurement": "LATS2 kinase activity", "setting": "[1]; Conc. 3.33333 (µM)", "result": "84.322 and 85.4373"}, {"measurement": "LATS2 kinase activity", "setting": "[1]; Conc. 10 (µM)", "result": "81.6154 and 76.4186"}, {"measurement": "IC50", "setting": "[1]", "result": "> 10000", "unit": "nM"}, {"measurement": "inhibition towards LATS", "setting": "[2]; in vitro, LATS1 and LATS2 (Fig. 5b, c)", "result": "showed no inhibition towards LATS"}, {"measurement": "IC50", "setting": "[2]; in vitro", "result": "> 10000", "unit": "nM"}]}
